We go through 10 compounds from patent publication US6448405B1, “Steroid receptor modulator compounds and methods” (Ligand Pharmaceuticals Incorporated, priority 1994, dated 2002).

In data set [1] the target is T1, human glucocorticoid receptor (GR) (Homo sapiens, UniProt P04150).
T1 construct: expressed in transfected cells; host or cells: CV-1 cells, transient transfection
T1 sequence (P04150 1-777): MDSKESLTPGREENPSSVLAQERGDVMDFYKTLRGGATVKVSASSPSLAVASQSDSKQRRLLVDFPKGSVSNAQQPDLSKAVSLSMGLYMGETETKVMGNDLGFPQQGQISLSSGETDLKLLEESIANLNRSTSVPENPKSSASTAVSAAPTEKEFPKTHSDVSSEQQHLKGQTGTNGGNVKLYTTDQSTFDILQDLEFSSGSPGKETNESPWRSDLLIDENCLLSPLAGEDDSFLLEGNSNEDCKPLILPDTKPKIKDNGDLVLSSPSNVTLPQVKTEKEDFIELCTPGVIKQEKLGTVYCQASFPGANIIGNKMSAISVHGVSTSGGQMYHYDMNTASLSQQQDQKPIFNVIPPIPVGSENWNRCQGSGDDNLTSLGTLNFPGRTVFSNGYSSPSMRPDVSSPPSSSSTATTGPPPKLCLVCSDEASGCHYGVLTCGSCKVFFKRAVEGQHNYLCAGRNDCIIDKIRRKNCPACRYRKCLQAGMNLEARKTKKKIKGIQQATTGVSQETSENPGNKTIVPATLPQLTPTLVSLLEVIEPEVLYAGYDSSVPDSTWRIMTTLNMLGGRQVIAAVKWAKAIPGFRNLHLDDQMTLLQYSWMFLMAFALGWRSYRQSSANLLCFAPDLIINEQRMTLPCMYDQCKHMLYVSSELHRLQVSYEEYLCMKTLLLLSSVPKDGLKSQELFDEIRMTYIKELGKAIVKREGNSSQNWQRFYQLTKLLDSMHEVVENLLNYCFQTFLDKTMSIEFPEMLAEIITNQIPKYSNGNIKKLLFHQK
In words: Co-transfection assay, GR antagonist activity, CV-1 cells (pRShGR). As to conditions: antagonist mode; for GR Antagonist CV-1 Cells Efficacy (%): % maximal inhibition; for IC50: read-out: GR Antagonist CV-1 Cells Potency. It counts as cell-based.

Data set [2] addresses T2, human mineralocorticoid receptor (MR) (Homo sapiens, UniProt P08235).
T2 construct: expressed in transfected cells; host or cells: CV-1 cells, transient transfection
T2 sequence (P08235 1-984): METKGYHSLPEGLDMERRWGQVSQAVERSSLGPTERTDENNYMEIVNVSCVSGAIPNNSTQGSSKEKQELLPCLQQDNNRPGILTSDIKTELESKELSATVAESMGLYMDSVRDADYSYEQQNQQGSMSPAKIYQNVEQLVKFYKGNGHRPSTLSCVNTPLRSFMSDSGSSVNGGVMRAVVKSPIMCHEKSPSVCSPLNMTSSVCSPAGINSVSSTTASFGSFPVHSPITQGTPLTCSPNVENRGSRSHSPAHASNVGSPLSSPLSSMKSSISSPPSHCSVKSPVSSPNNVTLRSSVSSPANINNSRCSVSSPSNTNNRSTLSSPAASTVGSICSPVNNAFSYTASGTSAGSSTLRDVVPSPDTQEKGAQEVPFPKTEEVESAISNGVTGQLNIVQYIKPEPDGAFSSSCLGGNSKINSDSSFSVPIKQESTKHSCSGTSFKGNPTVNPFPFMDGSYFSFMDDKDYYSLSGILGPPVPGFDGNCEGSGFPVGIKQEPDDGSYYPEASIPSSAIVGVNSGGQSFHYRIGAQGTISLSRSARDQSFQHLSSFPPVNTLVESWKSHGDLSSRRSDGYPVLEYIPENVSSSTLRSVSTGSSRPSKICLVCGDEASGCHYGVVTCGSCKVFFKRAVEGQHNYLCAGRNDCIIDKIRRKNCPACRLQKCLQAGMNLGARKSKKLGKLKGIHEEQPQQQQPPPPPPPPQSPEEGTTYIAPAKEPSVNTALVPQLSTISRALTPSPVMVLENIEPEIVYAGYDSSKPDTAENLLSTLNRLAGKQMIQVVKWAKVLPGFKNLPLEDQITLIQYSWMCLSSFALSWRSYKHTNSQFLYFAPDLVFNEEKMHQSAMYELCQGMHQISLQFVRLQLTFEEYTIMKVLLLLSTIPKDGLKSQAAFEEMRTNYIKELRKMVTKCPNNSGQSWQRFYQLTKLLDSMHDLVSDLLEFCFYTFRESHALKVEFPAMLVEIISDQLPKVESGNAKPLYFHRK
In words: Co-transfection assay, MR antagonist activity, CV-1 cells (pRShMR). Type of data set: cell-based. The conditions noted are these: antagonist mode; for MR Antagonist CV-1 Cells Efficacy (%): % maximal inhibition; for IC50: read-out: MR Antagonist CV-1 Cells Potency.

The target in data set [3] is T3, human glucocorticoid receptor alpha (GRα) (Homo sapiens, UniProt P04150).
T3 construct: made in house; crude extract used
T3 sequence (P04150 1-777): T1 sequence (P04150 1-777)
Kind of data set: GR binding assay, baculovirus extract, [3H] dexamethasone. As to conditions: competition with [3H] dexamethasone, 4° C., 16 hours; read-out: GR Binding K1.

The target of data set [4] is T4, human androgen receptor (AR) (Homo sapiens, UniProt P10275).
T4 construct: expressed in transfected cells; host or cells: CV-1 cells, transient transfection
T4 sequence (P10275 1-920): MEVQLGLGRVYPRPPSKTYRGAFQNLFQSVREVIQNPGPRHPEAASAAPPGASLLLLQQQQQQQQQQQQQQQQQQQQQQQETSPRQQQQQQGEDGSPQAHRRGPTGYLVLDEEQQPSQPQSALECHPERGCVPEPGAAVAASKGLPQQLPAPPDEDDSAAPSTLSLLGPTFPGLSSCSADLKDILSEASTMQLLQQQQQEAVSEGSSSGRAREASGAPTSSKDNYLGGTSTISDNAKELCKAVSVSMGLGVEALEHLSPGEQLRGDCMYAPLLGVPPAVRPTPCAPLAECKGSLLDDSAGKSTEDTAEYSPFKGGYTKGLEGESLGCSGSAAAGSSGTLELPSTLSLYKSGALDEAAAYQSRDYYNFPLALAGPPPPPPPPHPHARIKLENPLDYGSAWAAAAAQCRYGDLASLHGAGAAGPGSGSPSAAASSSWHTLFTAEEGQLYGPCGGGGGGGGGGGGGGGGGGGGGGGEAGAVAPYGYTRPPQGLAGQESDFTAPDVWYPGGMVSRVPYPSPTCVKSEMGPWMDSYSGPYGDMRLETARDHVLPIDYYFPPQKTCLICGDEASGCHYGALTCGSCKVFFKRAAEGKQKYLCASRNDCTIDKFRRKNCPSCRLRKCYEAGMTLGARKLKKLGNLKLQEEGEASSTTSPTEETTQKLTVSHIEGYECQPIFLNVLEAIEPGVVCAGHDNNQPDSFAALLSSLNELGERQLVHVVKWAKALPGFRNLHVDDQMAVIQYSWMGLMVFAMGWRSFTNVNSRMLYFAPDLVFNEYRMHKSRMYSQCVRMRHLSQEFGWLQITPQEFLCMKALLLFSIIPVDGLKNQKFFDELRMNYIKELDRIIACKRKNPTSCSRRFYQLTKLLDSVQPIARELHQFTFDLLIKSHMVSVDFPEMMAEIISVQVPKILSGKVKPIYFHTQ
In words: Co-transfection assay, AR agonist and antagonist activity, CV-1 cells (pRShAR). It counts as cell-based. As to conditions: for AR Agonist CV-1 Cells Efficacy (%): relative to DHT; for AR Antagonist CV-1 Cells Efficacy (%): % maximal inhibition.

Data set [5] has as its target T5, human AR (Homo sapiens, UniProt P10275).
T5 construct: expressed in transfected cells; host or cells: COS-1 cells, transient transfection
T5 sequence (P10275 1-920): T4 sequence (P10275 1-920)
Kind of data set: AR whole cell binding assay, transfected COS-1 cells, 3H-DHT.

Data set [6] concerns ventral prostates (VP) and seminal vesicles (SV) of immature castrated rats. Kind of data set: Immature castrated male rat model (antiandrogen activity). Type of data set: in vivo. As to conditions: co-administered with 0.1 mg of TP.
Protocol: Since the male sex organs are the tissues most responsive to modulation of androgen activity, this model is used to determine the androgen-dependent growth of the sex accessory organs in immature castrated rats.
Five days after surgery, animals groups were dosed for 3 days as follows:
At the end of the 3-day treatment, the animals were sacrificed, and the ventral prostates (VP) and seminal vesicles (SV) were collected and weighed. To compare data from different experiments, the sexual organ weights were first standardized as mg per 100 g of body weight, and the increase in organ weight induced by TP was considered as the maximum increase (100%). Super-anova (one factor) was used for statistical analysis.
The gain and loss of sexual organ weights reflect the changes of cell number (DNA content) and cell mass (protein content), depending upon the serum androgen concentration. […] Therefore, measurement of organ wet weights is sufficient to indicate the bioactivity of androgens and androgen antagonists.
Where [7] appears, read: read-out: AR Agonist CV-1 Cells Potency, Table 2, agonist mode, EC50.

By melting point is commonly meant the temperature of the solid-liquid transition.

Like-named read-outs stand apart in the source and are kept apart here.

For `CC1=CC(C)(C)Nc2ccc3c(c21)C(c1ccc(C)cc1)Oc1ccccc1-3` (racemic) [Compound 167, (R/S)-1,2-Dihydro-2,2,4-trimethyl-5-(4-Methylphenyl)-5H-chromeno[3,4-f]quinoline], the “GR Antagonist CV-1 Cells Efficacy (%)” value in data set [1] (Table 4) and in data set [1] (dexamethasone at its EC50) was 96% each time. Also, the IC50 was determined as 855 nM in data set [1] (dexamethasone at its EC50) and 2000 nM in data set [2] (aldosterone at its EC50). Further, the “MR Antagonist CV-1 Cells Efficacy (%)” value in data set [2] (Table 4) and in data set [2] (aldosterone at its EC50) was 61% in each case. In addition, the Ki in data set [3] came to 21 nM.
For the compound `CC1=CC(C)(C)Nc2ccc3c(c21)C(c1ccsc1)Oc1ccccc1-3` (racemic) [Compound 170, (R/S)-1,2-Dihydro-2,2,4-trimethyl-5-(thiophen-3-yl)-5H-chromeno[3,4-f]quinoline], the “GR Antagonist CV-1 Cells Efficacy (%)” value in data set [1] (Table 4) is 94%. Moreover, the figures for the IC50 in data set [1] (dexamethasone at its EC50) and in data set [2] (aldosterone at its EC50) were 1550 nM and 410 nM, respectively. Also, the “MR Antagonist CV-1 Cells Efficacy (%)” value in data set [2] (Table 4) stood at 84%. Further, the Ki in data set [3] worked out at 47 nM.
For `C=C1CC(C)(C)Nc2ccc3c(c21)C(c1cccc(F)c1)Oc1ccccc1-3` (racemic) [Compound 192, (R/S)-5-(3-Fluorophenyl)-1,2,3,4-tetrahydro-2,2-dimethyl-4-methylidene-5H-chromeno[3,4-f]quinoline], in that order: 81%, 280 nM, 320 nM, 70% and 214 nM.
Compound `CC1=CC(C)(C)Nc2ccc3c(c21)C(c1cc(F)cc(Br)c1)Oc1ccccc1-3` (racemic) [Compound 351, (R/S)-5-(3-Bromo-5-Fluorophenyl)-1,2-dihydro-2,2,4-trimethyl-5H-chromeno[3,4-f]quinoline] came in with a melting point of 82 to 84 °C.
Turning to `CC1C(=O)C(C)(C)Nc2cc3[nH]c(=O)cc(C(F)(F)F)c3cc21` (racemic) [Compound 418, (R/S)-1,2,3,4-Tetrahydro-6-trifluoromethyl-2,2,4-trimethyl-8-pyridono[5,6-f]-3-quinolinone], the EC50 was above 10 µM in data set [4] and above 10 µM in data set [4] (read-out: AR Agonist CV-1 Cells Potency, agonist mode, EC50). In data set [4], the IC50 was determined as 200 nM. Besides, the “AR Agonist CV-1 Cells Efficacy (%)” value in data set [4] (Table 2, agonist mode) is “na (na = not active (i.e. efficacy of <20 and potency of >10,000))”; in data set [4] (agonist mode) it was “na (na = not active (i.e. efficacy of <20 and potency of >10,000))”. For the same compound, the “AR Antagonist CV-1 Cells Efficacy (%)” value in data set [4] (Table 2, antagonist mode) was 63%. The Ki in data set [5] (competition with 1 nM 3H-DHT, COS-1 whole cells, three hours at 37° C., read-out: AR Binding Ki) amounted to 1000 nM.
The compound `CC1=CC(C)(C)Nc2cc3oc(=O)cc(C(F)(F)F)c3cc21` [Compound 238, 1,2-Dihydro-2,2,4-trimethyl-6-trifluoromethyl-8-pyranono[5,6-g]quinoline] showed an EC50 in data set [4] of 0.01 µM. The IC50 in data set [4] was above 10000 nM; in data set [4] (read-out: AR Antagonist CV-1 Cells Potency, Table 2, antagonist mode, IC50), above 10000 nM. Besides, the “AR Agonist CV-1 Cells Efficacy (%)” value in data set [4] (Table 2, agonist mode) was 96%. Also, the “AR Antagonist CV-1 Cells Efficacy (%)” value in data set [4] (Table 2, antagonist mode) was “na (na = not active (i.e. efficacy of <20 and potency of >10,000))”; in data set [4] (antagonist mode, DHT at its EC50), “na (na = not active (i.e. efficacy of <20 and potency of >10,000))”. Moreover, the Ki in data set [5] came out at 44 nM.
`CC1=CC(C)(C)Nc2c1cc1c(C(F)(F)F)cc(=O)[nH]c1c2C` [Compound 255, 1,2-Dihydro-2,2,4,10-tetramethyl-6-trifluoromethyl-8-pyridono[5,6-g]quinoline]: the “AR antagonist activity: suppression of testosterone-mediated increases in the weights of VP and SV” value in data set [6] is “exhibited AR antagonist activity”.
In the case of `CC1=CC(C)(C)Nc2cc3oc(=O)cc(C(F)(F)C(F)(F)F)c3cc21` [Compound 256, 1,2-Dihydro-2,2,4-trimethyl-6-(1,1,2,2,2-pentafluoroethyl)-8-pyranono[5,6-g]quinoline], the EC50 in data set [4] and in data set [4] (setting [7]) was above 10 µM throughout. In data set [4], this compound returned an IC50 of 62 nM. Also, the “AR Agonist CV-1 Cells Efficacy (%)” value in data set [4] (Table 2, agonist mode) was “na (na = not active (i.e. efficacy of <20 and potency of >10,000))”; in data set [4] (agonist mode), “na (na = not active (i.e. efficacy of <20 and potency of >10,000))”. Also, the “AR Antagonist CV-1 Cells Efficacy (%)” value in data set [4] (Table 2, antagonist mode) is reported as 91%. In data set [5], this compound came in with a Ki of 4500 nM.
With `CC1=CC(C)(C)Nc2cc3c(cc21)c(C(F)(F)F)cc(=O)n3C` [Compound 261, 1,2-Dihydro-2,2,4,9-tetramethyl-6-trifluoromethyl-8-pyridono[5,6-g]quinoline], the “AR antagonist activity: suppression of testosterone-mediated increases in the weights of VP and SV” value in data set [6] is listed as “exhibited AR antagonist activity”.
For the compound `CC1=CC(C)(C)N(C)c2cc3oc(=O)cc(C(F)(F)F)c3cc21` [Compound 265, 1,2-Dihydro-1,2,2,4-tetramethyl-6-trifluoromethyl-8-pyranono[5,6-g]quinoline], the EC50 in data set [4] and in data set [4] (setting [7]) was above 10 µM each time. For the same compound, in data set [4], the IC50 is 56 nM. The “AR Agonist CV-1 Cells Efficacy (%)” value in data set [4] (Table 2, agonist mode) was “na (na = not active (i.e. efficacy of <20 and potency of >10,000))”; in data set [4] (agonist mode), “na (na = not active (i.e. efficacy of <20 and potency of >10,000))”. In addition, the “AR Antagonist CV-1 Cells Efficacy (%)” value in data set [4] (Table 2, antagonist mode) worked out at 78%. Further, the Ki in data set [5] amounted to 23 nM.
